# Data published in patent publication US10815237B2, “Antimicrobials and methods of making and using same” (BIOVERSYS AG, priority 2016, dated 2020).
# pIC50: −log10 of the molar value. Read-outs that look alike come from different tables or passages of the source.
# Columns and labels:
# [1] = test system: E. coli DH10B mcr-1 transformant; assay: CLSI broth microdilution MIC, E. coli DH10B mcr-1 transformant; assay type: cell-based; conditions: Escherichia coli
# Description: (§1) Four compounds, including Compound No. 8 of the present application (RX-04D) were tested against (i) multiresistant Enterobacteriaceae and Acinetobacter with carbapenemases; (ii) Enterobacteriaceae with MCR-1; and (iii) P. aeruginosa with altered efflux (see Tables 4 and 5). In this case, MCR-1 is relevant because its activity reduces the negative charge of lipopolysaccharides, potentially affecting binding of poly-basic molecules such as the compounds tested herein, as well as polymyxins.
# (§2) MICs of the four tested compounds and comparators (amikacin, cefepime, colistin, meropenem and tigecyline) were determined by CLSI broth microdilution using pre-prepared plates (Trek Diagnostic Systems) (CLSI Approved Standard M7-A10). Carbapenemase and mcr-1 genes were detected by PCR or sequencing. Efflux levels in P. aeruginosa isolates were inferred by interpretive reading of antibiogram data.
# [2] = test system: Eschericia coli (E. coli) strain ATCC25922; assay: standard microdilution MIC, E. coli; assay type: cell-based, Escherichia coli; conditions: Escherichia coli
# Description: (§3) The in vitro activity of the compounds of the present disclosure can be determined. Antimicrobial testing is typically performed to determine the minimum inhibitory concentration (MIC). Minimum inhibitory concentrations (MICs) are determined by the microdilution method in a final volume of 100 μl according to protocols outlined by The Clinical and Laboratory Standards Institute (CLSI). Performance standards for reference strains are assessed within the same experimental design to maintain quality control. See, for example, Clinical Laboratory Standards Institute: Methods for dilution antimicrobial susceptibility tests for bacteria that grow aerobically M7-A8. Approved Standard-Eighth Edition. Wayne, Pa.: CLSI; December 2008; and Clinical Laboratory Standards Institute: Performance Standards for Antimicrobial Susceptibility Testing M100-S20; Approved Standard-Twentieth Edition. Wayne, Pa.: CLSI; June 2010.
# (§4) The compounds of the present disclosure were tested for antimicrobial activity. The Compounds 1-23 were run against Eschericia coli (E. coli) strain ATCC25922 and against Staphylococcus aureus (S. aureus) 11540 strain using a standard microdilution assay to determine minimum inhibitory concentrations (MICs). […] It will be recognized by one skilled in the art that the compounds can be assessed against other bacterial organisms and that the presentation of data for activity against Eschericia coli and Staphylococcus aureus are illustrative and in no way is intended to limit the scope of the present disclosure. The compounds of the present disclosure can be assayed against a range of other microorganisms depending upon the performance activity desired to be gathered. Furthermore, the “+” and “−” representation and the selection of a cutoff value of 16 micrograms/mL is also illustrative and in no way is intended to limit the scope of the present disclosure.
# P. aeruginosa (n=20) = assay: CLSI broth microdilution MIC, P. aeruginosa; assay type: cell-based; conditions: for share of MICs ≥16 mg/L: P. aeruginosa isolates, stated jointly for analogues C and D; for MIC: Pseudomonas aeruginosa
# Description: as §1, §2
# [3] = test system: Chinese hamster ovary (CHO) cells; assay: cytotoxicity against CHO cell line (Cell Titer Blue); assay type: cell-based; conditions: Cricetulus griseus, 24 h, CHO-K1 cells, 24 hours incubation, percent cell kill
# Description: The compounds of the present disclosure were tested for cytotoxicity against Chinese hamster ovary (CHO) cells.
# The assay was performed by seeding CHO—K1 in F12K medium containing 13.33% Fetal Bovine Serum […]. 37.5 μl of cell suspension at a concentration of 9,500 cells/well was plated into each column of a 384-well black clear bottom assay plate with the exception of a negative (no cell) control column, and allowed to adhere for 2 hours. The culture media was then removed from the 175 cm^2 flask(s) and the cell monolayer washed with 10 mL of Phosphate Buffered Saline PBS. 3 mL of Cellstripper™ was then added and the flask was incubated for approximately 5 min at 37° C. The cells were dissociated by agitation and 7 mL of F 12K medium containing 10% FBS was added to the flask. A homogeneous cell suspension was obtained by trituration of the flask. The cells were counted with a hemocytometer by diluting an aliquot of the cell suspension in PBS with 0.4% trypan blue. Typically, a ratio of 100 μl cell suspension to 1800 μl PBS to 100 μl trypan blue was used.
# The volume of cell suspension containing the number of cells needed to seed the plate(s) (15.2 mL containing 3.8×10^6 cells) was calculated and transferred to a 50 mL centrifuge tube with the appropriate volume of media. 37.5 μl of cells were added to each well of the 384 well plate except for the negative (no cell) control column. A cytotoxicity 100-fold dilution plate was then prepared by manually pipetting 18 μl of 100% DMSO into two columns of an empty low volume dilution plate. 2 μl of a 50 mM solution of compounds 1-23 from the translation plate were manually pipetted into the corresponding columns of the 100-fold dilution plate. 10 μl of 100% DMSO was manually pipetted into all remaining columns of the 100-fold plate.
# A 4-fold cytotoxicity plate was prepared beforehand by manually pipetting 48 μl of F12K media (without DMSO and without FBS) into each well of a matrix 384 well plate. The test samples in the 100-fold dilution plate were mixed and diluted. Ten 2-fold dilutions were performed for each compound in duplicate. The 384 cannula array then transferred 2 μl to the 48 μl of media in the cytotoxicity 4-fold dilution plate. The array was then mixed and 12.5 μl of samples from the cytotoxicity 4-fold dilution plate were transferred to the 37.5 μl of cells and media. The final top concentration of samples at this point in the procedure was 50 μM with 10 subsequent 1:2 dilutions down to […]. The final DMSO concentration were 1% and the final concentration of FBS was 10%.
# Cycloheximide was run as a control. Specifically, Cycloheximide was diluted to 0.1 mM from 100 mM stock […] and was added to the cytotoxicity 100-fold plate. Upon addition to the cell plate, a range of 1 μM to 1 nM of cycloheximide was run.
# A column separate from the one (referred to above) that served as the negative control was used for cell control wells to which only media was added.
# The plates were then incubated for 24 hours at 37° C. and 5% CO2. […] The two columns used earlier to prepare the 100-fold dilution plate by pipetting 18 μl of 100% DMSO contained the samples tested at 200 μM. After the 24 hour incubation period, the 4 μl of Cell Titer blue was added to each well using a Multichannel Matrix pipettor. The plates were returned to the incubator and incubated for an additional 5 hours. Fluorescence (530 nm excitation wavelength/590 nm emission wavelength) was measured on a Wallac Victor microplate reader.
# Cell viability was assessed fluorometrically after a 5 hour incubation with resazurin (Cell Titer Blue™), which is reduced by living cells to the fluorescent resorufin.
# The average fluorescence for the negative control was determined to obtain the average blank fluorescence. The average blank fluorescence was subtracted from the fluorescence values obtained for all the test agents. The resulting values are the corrected fluorescence. […]
# [4] = test system: A. baumannii isolates (n=10); assay: CLSI broth microdilution MIC, A. baumannii; assay type: cell-based; conditions: for relative activity among analogues: 10 A. baumannii; for MIC: Acinetobacter baumannii, A. baumannii
# Description: as §1, §2
# [5] = test system: Enterobacteriaceae (n=68); assay: CLSI broth microdilution MIC, Enterobacteriaceae panel; assay type: cell-based; conditions: for peak of unimodal MIC distribution: 68 Enterobacteriaceae
# Description: as §1, §2
# E. coli DH10B recipient = assay: CLSI broth microdilution MIC, E. coli DH10B recipient; assay type: cell-based; conditions: Escherichia coli, DH10BRECIPIENT, read-out: MIC
# Description: as §1, §2
# [6] = test system: Staphylococcus aureus (S. aureus) 11540 strain; assay: standard microdilution MIC, S. aureus; assay type: cell-based; conditions: Staphylococcus aureus
# Description: as §3, §4
# [7] = test system: Enterobacteriaceae with MCR-1 (MCR-1 isolates, n=14); assay: CLSI broth microdilution MIC, MCR-1 isolates; assay type: cell-based; conditions: all MCR-1 isolates (n=14)
# Description: as §1, §2
# CPE (n=36) = assay: CLSI broth microdilution MIC, carbapenemase producers (CPE); assay type: cell-based, Enterobacteriaceae; conditions: 35/36 (97%) for RX-04A
# Description: as §1, §2
SMILES,MIC [1],MIC [2],share of MICs ≥16 mg/L (P. aeruginosa (n=20)),pIC50 [3],relative activity among analogues [4],peak of unimodal MIC distribution [5],MIC (E. coli DH10B recipient),MIC [6],MIC relative to MIC for E. coli ATCC 25922 [7],change of MIC with elevated efflux (P. aeruginosa (n=20); P. aeruginosa isolates with elevated efflux),"MIC (P. aeruginosa (n=20); 19/20 (95%) P. aeruginosa isolates, read-out: MICs)","MIC (P. aeruginosa (n=20); P. aeruginosa, summary, read-out: MICs mostly)","MIC ([4]; 7/10 values, read-out: MICs)","MIC ([4]; summary, read-out: MICs mostly)","MIC ([5]; 67/68 (>98%) of Enterobacteriaceae, read-out: MICs)","MIC ([5]; Enterobacteriaceae, summary, read-out: MICs mostly)",MIC relative to MIC for E. coli ATCC 25922 (CPE (n=36))
C[C@H](N)CCCc1cc(Cl)c(F)c(-c2cc3cn(-c4ccc([C@@H]5CCC[C@@H](CCNC(=N)CN)N5)cc4)c(=O)nc3[nH]2)c1 [Compound 8],1 µg/mL,≤ 16 µg/mL,48%,4.02,least active analogue,2 µg/mL,1 µg/mL,≤ 16 µg/mL,,,,,,,,,
C[C@H](N)CCCc1cc(OC(F)(F)F)c(F)c(-c2cc3cn(-c4ccc([C@@H]5CCC[C@@H](CCNC(=N)N)N5)cc4)c(=O)nc3[nH]2)c1 [RX-04A],0.25 µg/mL,,,,lowest MICs,1 µg/mL,0.25 µg/mL,,≤ 2 fold,not raised,1 to 4 µg/mL,1 to 4 µg/mL,1 to 2 µg/mL,1 to 2 µg/mL,0.25 to 2 µg/mL,1 to 2 µg/mL,≤ 4 fold
CC(=N)NCC[C@@H]1CCC[C@@H](c2ccc(-n3cc4cc(-c5cc(CCC[C@@H](N)CO)cc(Cl)c5F)[nH]c4nc3=O)cc2F)N1 [RX-04B],0.5 µg/mL,,,,,1 µg/mL,0.5 µg/mL,,,,,,,,,,
CSc1cc(-n2cc3cc(-c4cc(CCC[C@@H](N)C5CC5)cc(Cl)c4F)[nH]c3nc2=O)ccc1[C@@H]1CCC[C@@H](CCNC(C)=N)N1 [RX-04C],0.5 µg/mL,,48%,,,2 µg/mL,0.5 µg/mL,,,,,,,,,,
